According to ChEMBL document CHEMBL1909046, “DrugMatrix in vitro pharmacology data”:

What was measured:
[1] = target: T1, Alpha-2C adrenergic receptor (Homo sapiens, UniProt P18825); test: DRUGMATRIX: Adrenergic Alpha-2C radioligand binding (ligand: [3H] MK-912); assay type: cell membranes, Sf9, Membrane; details: sf9
T1 sequence (P18825 whole entry): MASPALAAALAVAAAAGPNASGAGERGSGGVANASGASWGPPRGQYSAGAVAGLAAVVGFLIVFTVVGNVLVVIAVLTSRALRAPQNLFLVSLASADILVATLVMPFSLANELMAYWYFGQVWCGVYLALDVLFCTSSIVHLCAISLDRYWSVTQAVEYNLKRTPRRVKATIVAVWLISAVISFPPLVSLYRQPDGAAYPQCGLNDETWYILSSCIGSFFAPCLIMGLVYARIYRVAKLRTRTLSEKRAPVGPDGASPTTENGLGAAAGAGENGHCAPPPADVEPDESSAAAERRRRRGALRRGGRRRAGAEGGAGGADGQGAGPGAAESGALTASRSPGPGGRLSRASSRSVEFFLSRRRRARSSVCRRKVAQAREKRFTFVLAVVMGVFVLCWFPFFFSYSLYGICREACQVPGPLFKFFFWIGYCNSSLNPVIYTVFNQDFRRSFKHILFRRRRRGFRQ

[2] = target: T2, Alpha-1A adrenergic receptor (Rattus norvegicus, UniProt P43140); test: DRUGMATRIX: Alpha-1A adrenergic receptor radioligand binding (ligand: prazosin); assay type: cell membranes, Wistar, Submaxillary gland, Membrane; details: Not Active = under 50% inhibition at 10 µM; for Ki: read-out: Ki
T2 sequence (P43140 whole entry): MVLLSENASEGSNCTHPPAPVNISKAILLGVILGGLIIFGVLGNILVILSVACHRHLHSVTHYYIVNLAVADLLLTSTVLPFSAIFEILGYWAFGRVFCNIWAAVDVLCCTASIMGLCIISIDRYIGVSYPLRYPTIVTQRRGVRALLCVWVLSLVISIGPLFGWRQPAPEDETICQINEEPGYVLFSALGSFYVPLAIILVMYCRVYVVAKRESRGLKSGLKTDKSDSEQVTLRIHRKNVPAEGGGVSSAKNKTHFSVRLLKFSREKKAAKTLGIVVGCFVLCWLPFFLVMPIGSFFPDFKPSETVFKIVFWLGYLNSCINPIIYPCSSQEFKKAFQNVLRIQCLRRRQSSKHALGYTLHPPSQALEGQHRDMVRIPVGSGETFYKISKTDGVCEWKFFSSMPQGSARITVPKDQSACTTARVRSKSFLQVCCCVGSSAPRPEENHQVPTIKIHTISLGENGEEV

[3] = target: 5-hydroxytryptamine receptor 1B (Rattus norvegicus, UniProt P28564); assay type: cell membranes, Wistar, Cerebral cortex, Membrane; further: in other assays of this panel Not Active means under 50% inhibition at 10 µM
Sequence of 5-hydroxytryptamine receptor 1B (P28564 whole entry): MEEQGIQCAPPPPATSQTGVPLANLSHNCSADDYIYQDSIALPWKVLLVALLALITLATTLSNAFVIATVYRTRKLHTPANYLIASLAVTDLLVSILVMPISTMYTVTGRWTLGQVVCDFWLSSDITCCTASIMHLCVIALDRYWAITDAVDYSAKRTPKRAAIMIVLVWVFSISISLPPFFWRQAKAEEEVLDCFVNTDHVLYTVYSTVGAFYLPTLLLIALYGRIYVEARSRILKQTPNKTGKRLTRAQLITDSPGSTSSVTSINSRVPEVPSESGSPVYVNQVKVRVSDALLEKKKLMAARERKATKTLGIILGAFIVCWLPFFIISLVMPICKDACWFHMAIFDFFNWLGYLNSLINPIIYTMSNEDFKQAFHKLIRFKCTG

[4] = target: T3, Vasoactive intestinal polypeptide receptor 1 (Homo sapiens, UniProt P32241); assay type: cell membranes, Membrane; details: ht-29; further: in other assays of this panel Not Active means under 50% inhibition at 10 µM
T3 sequence (P32241 whole entry): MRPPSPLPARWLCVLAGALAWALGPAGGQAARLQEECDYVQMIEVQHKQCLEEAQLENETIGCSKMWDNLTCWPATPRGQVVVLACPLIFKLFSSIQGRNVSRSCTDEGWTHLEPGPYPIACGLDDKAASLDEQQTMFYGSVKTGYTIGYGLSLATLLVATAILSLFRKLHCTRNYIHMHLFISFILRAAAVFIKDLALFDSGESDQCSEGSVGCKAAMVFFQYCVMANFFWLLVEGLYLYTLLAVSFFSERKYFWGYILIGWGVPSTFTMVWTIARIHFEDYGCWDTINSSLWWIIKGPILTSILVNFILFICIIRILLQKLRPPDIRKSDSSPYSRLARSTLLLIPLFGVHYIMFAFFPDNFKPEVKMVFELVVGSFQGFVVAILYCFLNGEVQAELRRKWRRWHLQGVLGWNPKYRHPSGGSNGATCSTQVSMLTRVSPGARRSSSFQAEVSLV

Acetylcholinesterase = Acetylcholinesterase (Homo sapiens, UniProt P22303); test: DRUGMATRIX: Acetylcholinesterase enzyme inhibition (substrate: acetylthiocholine); assay type: cell-based, HEK293; details: hek293; Not Active = under 50% inhibition at 10 µM
Sequence of Acetylcholinesterase (P22303 whole entry): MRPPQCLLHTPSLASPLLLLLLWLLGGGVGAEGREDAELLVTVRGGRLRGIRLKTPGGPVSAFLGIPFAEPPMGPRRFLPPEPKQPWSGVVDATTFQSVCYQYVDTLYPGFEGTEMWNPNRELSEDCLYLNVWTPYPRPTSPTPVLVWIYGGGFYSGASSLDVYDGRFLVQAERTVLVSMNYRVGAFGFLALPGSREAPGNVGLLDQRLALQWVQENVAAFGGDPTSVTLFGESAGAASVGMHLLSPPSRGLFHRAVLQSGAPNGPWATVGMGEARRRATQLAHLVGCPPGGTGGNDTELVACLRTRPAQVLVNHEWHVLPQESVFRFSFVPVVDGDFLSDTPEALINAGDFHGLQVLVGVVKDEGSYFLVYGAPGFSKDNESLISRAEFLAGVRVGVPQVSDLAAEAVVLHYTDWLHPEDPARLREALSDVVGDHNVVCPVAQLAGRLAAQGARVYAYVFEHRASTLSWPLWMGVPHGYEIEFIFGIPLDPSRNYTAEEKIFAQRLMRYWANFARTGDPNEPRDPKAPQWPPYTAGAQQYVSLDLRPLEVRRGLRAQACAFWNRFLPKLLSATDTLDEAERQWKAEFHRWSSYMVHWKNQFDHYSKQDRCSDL

Caspase-1 = target: T4, Caspase-1 (Homo sapiens, UniProt P29466); design: species or system Escherichia coli;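 further: Caspase-1 enzyme inhibition assay with a peptide substrate; in other assays of this panel Not Active means under 50% inhibition at 10 µM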
T4 sequence (P29466 whole entry): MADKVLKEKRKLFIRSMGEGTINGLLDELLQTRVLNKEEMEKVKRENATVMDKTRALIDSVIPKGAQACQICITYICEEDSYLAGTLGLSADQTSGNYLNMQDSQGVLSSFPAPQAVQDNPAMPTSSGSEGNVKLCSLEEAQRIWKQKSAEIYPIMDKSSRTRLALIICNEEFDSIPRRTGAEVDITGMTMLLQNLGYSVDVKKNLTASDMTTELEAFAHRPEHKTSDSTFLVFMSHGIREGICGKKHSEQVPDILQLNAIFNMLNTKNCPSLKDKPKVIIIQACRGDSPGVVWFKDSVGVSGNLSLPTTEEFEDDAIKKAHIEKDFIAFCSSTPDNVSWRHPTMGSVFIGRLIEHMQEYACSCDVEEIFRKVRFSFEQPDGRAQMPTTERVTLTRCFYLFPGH

[5] = target: Protein kinase C alpha type (Homo sapiens, UniProt P17252); assay type: cell-based; details: sf9;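 further: inhibition of PKCalpha kinase activity measured in an enzyme assay with histone as the phosphorylation substrate; in other assays of this panel Not Active means under 50% inhibition at 10 µM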

SMILES	IC50 [1]	IC50 [2]	IC50 [3]	IC50 [4]	IC50 (Acetylcholinesterase)	IC50 (Caspase-1)	IC50 [5]	IC50 ([2]; read-out: IC50) [nM]	Ki [2] [nM]
CCC1=C(C)CN(C(=O)NCCc2ccc(S(=O)(=O)NC(=O)N[C@H]3CC[C@H](C)CC3)cc2)C1=O [GLIMEPIRIDE]	Not Active	Not Active	Not Active	Not Active	Not Active	Not Active	Not Active		
Nc1cc(-c2ccncc2)c[nH]c1=O [INAMRINONE]	Not Active	Not Active	Not Active	Not Active	Not Active	Not Active	Not Active		
CCCCC1=NC2(CCCC2)C(=O)N1Cc1ccc(-c2ccccc2-c2nnn[nH]2)cc1 [IRBESARTAN]	Not Active	Not Active	Not Active	Not Active	Not Active	Not Active	Not Active		
CN1CCC(=C2c3ccccc3CC(=O)c3sccc32)CC1 [KETOTIFEN]	Not Active	Not Active	Not Active	Not Active	Not Active	Not Active	Not Active		
N[C@@H](Cn1ccc(=O)c(O)c1)C(=O)O [L-MIMOSINE]	Not Active	Not Active	Not Active	Not Active	Not Active	Not Active	Not Active		
C[N+](C)(C)C[C@H](O)CC(=O)[O-] [LEVOCARNITINE]	Not Active	Not Active	Not Active	Not Active	Not Active	Not Active	Not Active		
C[C@H]1COc2c(N3CCN(C)CC3)c(F)cc3c(=O)c(C(=O)O)cn1c23.C[C@H]1COc2c(N3CCN(C)CC3)c(F)cc3c(=O)c(C(=O)O)cn1c23.O [LEVOFLOXACIN]	Not Active	Not Active	Not Active	Not Active	Not Active	Not Active	Not Active		
CCn1cc(C(=O)O)c(=O)c2cc(F)c(N3CCNC(C)C3)c(F)c21 (configuration not stated) [LOMEFLOXACIN]	Not Active	Not Active	Not Active	Not Active	Not Active	Not Active	Not Active		
CN1CCCC(CN2c3ccccc3Sc3ccccc32)C1 (configuration not stated) [MEPAZINE]	Not Active		Not Active	Not Active	Not Active	Not Active	Not Active	144	58
Cc1cccc(C)c1NC(=O)C1CCCCN1C (configuration not stated) [MEPIVACAINE]	Not Active	Not Active	Not Active	Not Active	Not Active	Not Active	Not Active		
CN(C)C(=N)NC(=N)N [METFORMIN]	Not Active	Not Active	Not Active	Not Active	Not Active	Not Active	Not Active		
CC(C)(C)NCC(O)COc1cccc2c1CC(O)C(O)C2 (configuration not stated) [NADOLOL]	Not Active	Not Active	Not Active	Not Active	Not Active	Not Active	Not Active		
C[C@]12CC[C@H]3[C@@H](CCC4=CC(=O)CC[C@@H]43)[C@@H]1CC[C@@H]2O [NANDROLONE]	Not Active	Not Active	Not Active	Not Active	Not Active	Not Active	Not Active		
C[C@@H]1C/C=C/C=C/C=C/C=C/[C@H](O[C@@H]2O[C@H](C)[C@@H](O)[C@H](N)[C@@H]2O)C[C@@H]2O[C@](O)(C[C@@H](O)C[C@H]3O[C@@H]3/C=C/C(=O)O1)C[C@H](O)[C@H]2C(=O)O [NATAMYCIN]	Not Active	Not Active	Not Active	Not Active	Not Active	Not Active	Not Active		
NC(=O)c1cccnc1 [NIACINAMIDE]	Not Active	Not Active	Not Active	Not Active	Not Active	Not Active	Not Active		
CS(=O)(=O)Nc1ccc([N+](=O)[O-])cc1Oc1ccccc1 [NIMESULIDE]	Not Active	Not Active	Not Active	Not Active	Not Active	Not Active	Not Active		
CN1C(=O)CN=C(c2ccccc2)c2cc([N+](=O)[O-])ccc21 [NIMETAZEPAM]	Not Active	Not Active	Not Active	Not Active	Not Active	Not Active	Not Active		
COc1ccc2c(c1OC)C(=O)O[C@@H]2[C@H]1c2c(cc3c(c2OC)OCO3)CCN1C [NOSCAPINE]	Not Active	Not Active	Not Active	Not Active	Not Active	Not Active	Not Active		
C[C@@H]1O[C@@H](O[C@H]2C[C@@H](O)[C@]3(CO)[C@H]4[C@H](O)C[C@]5(C)[C@@H](C6=CC(=O)OC6)CC[C@]5(O)[C@@H]4CC[C@]3(O)C2)[C@H](O)[C@H](O)[C@H]1O [OUABAIN]	Not Active	Not Active	Not Active	Not Active	Not Active	Not Active	Not Active		
NC(=O)N1c2ccccc2CC(=O)c2ccccc21 [OXCARBAZEPINE]	Not Active	Not Active	Not Active	Not Active	Not Active	Not Active	Not Active		
COc1ccnc(C[S+]([O-])c2nc3ccc(OC(F)F)cc3[nH]2)c1OC (configuration not stated) [PANTOPRAZOLE]	Not Active	Not Active	Not Active	Not Active	Not Active	Not Active	Not Active		
N=C(N)c1ccc(OCCCCCOc2ccc(C(=N)N)cc2)cc1 [PENTAMIDINE]	Not Active		Not Active	Not Active	Not Active	Not Active	Not Active	1210	491
NNCCc1ccccc1 [PHENELZINE]	Not Active	Not Active	Not Active	Not Active	Not Active	Not Active	Not Active		
CCc1ccc(CCOc2ccc(CC3SC(=O)NC3=O)cc2)nc1 (configuration not stated) [PIOGLITAZONE]	Not Active	Not Active	Not Active	Not Active	Not Active	Not Active	Not Active		
CCCNC(C)C(=O)Nc1ccccc1C (configuration not stated) [PRILOCAINE]	Not Active	Not Active	Not Active	Not Active	Not Active	Not Active	Not Active		
